Like-named read-outs stand apart in the source and are kept apart here.
Legend:
SIK1 = SIK1 (Homo sapiens (Human), UniProt P57059); assay: Pan SIK MS IC50 enzyme assay (SIK1); type: biochemical; conditions: 1 mM ATP, substrate peptide AQT0868, LCMS/MS detection
Procedure: (§1) Enzyme Assay: Pan SIK MS IC50 Assay
(§2) Salt Induced Kinase (SIK) activity is determined by measuring the effect of a test agent on the activity of the appropriate SIK enzyme to phosphorylate its corresponding substrate. […] The phosphorylated substrate product resulting from the kinase reaction is detected by LCMS/MS, and the area under the peak curve correlates with kinase activity. […] The plates are spun at 1000 rpm for 30 seconds to ensure compounds are at the bottom of the well before removing foil covers. 0.15 μL HPE (assay std) and ZPE (DMSO) are added to the ARP using an HP D300 dispenser. Plates are spun again at 1000 rpm for 30 seconds. […] Plates are spun at 1000 rpm for 30 seconds. Plates are then sealed and incubated at RT for 10 minutes. Following incubation, 5 μL of 5× peptide reagent is added with a Multidrop Combi and designated small volume cassette to initiate the kinase reaction. Plates are spun at 1000 rpm for 30 seconds. Plates are then sealed and incubated at RT for 90 minutes. The assay is stopped by the addition of 5 μl of 120 mM EDTA added with a Multidrop Combi and designated small volume cassette (20 mM final concentration). Plates are spun at 1000 rpm for 30 seconds. 10 μl of the final reaction mix from each of the three individual enzyme plates are transferred by a Platemate Plus to the same corresponding 96 well deepwell plate containing 70 μl Water/Methanol (85/15%) for multiplex MS detection ([…]). Using Activity Base (ABase), an idbs data analysis software tool, the reported area ratio unit data is associated to compound, batch and dose information, the data is evaluated for quality, and the percent inhibition of each well is calculated. The data from each Max effect/HPE and Min effect/ZPE control wells are assessed, and outliers are excluded from all further calculations. The mean and standard deviation of the HPE and ZPE are then calculated for each plate, along with the Z Prime. The compound data is converted into % effect, using the average ZPE and HPE controls as 0% and 100% activity, respectively.

SIK2 = SIK2 (Homo sapiens (Human), UniProt Q9H0K1); assay: Pan SIK MS IC50 enzyme assay (SIK2); type: biochemical; conditions: 1 mM ATP, substrate peptide AQT0252, LCMS/MS detection
Chain of SIK2 (Q9H0K1 whole entry, species assumed): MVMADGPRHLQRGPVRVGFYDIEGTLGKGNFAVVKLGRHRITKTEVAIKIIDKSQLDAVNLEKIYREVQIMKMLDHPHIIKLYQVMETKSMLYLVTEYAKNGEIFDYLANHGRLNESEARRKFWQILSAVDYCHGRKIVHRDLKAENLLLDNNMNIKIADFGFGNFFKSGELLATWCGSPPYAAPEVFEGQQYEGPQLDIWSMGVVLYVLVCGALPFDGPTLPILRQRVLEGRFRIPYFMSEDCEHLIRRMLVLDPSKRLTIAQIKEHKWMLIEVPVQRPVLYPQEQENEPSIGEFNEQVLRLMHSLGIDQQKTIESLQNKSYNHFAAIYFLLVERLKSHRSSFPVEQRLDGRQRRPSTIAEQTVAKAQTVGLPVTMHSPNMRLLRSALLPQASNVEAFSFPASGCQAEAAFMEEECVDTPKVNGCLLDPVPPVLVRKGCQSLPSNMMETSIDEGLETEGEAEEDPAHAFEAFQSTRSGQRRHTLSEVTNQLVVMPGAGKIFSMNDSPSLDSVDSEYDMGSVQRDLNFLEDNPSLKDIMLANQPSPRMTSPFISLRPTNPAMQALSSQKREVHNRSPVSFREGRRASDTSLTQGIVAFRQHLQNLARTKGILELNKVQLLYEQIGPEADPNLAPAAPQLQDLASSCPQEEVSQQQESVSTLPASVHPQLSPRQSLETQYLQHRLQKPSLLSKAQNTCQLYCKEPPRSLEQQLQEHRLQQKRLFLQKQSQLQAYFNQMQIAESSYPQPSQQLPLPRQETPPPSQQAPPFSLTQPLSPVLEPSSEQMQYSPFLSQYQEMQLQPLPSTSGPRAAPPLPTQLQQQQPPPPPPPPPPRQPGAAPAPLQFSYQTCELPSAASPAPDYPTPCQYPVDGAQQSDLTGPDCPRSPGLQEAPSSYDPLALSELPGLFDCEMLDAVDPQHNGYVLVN
Procedure: as §1, §2

SIK3 = SIK3 (Homo sapiens (Human), UniProt Q9Y2K2); assay: Pan SIK MS IC50 enzyme assay (SIK3); type: biochemical; conditions: 1 mM ATP, substrate peptide AQT0508, LCMS/MS detection
Chain of SIK3 (Q9Y2K2 whole entry, species assumed): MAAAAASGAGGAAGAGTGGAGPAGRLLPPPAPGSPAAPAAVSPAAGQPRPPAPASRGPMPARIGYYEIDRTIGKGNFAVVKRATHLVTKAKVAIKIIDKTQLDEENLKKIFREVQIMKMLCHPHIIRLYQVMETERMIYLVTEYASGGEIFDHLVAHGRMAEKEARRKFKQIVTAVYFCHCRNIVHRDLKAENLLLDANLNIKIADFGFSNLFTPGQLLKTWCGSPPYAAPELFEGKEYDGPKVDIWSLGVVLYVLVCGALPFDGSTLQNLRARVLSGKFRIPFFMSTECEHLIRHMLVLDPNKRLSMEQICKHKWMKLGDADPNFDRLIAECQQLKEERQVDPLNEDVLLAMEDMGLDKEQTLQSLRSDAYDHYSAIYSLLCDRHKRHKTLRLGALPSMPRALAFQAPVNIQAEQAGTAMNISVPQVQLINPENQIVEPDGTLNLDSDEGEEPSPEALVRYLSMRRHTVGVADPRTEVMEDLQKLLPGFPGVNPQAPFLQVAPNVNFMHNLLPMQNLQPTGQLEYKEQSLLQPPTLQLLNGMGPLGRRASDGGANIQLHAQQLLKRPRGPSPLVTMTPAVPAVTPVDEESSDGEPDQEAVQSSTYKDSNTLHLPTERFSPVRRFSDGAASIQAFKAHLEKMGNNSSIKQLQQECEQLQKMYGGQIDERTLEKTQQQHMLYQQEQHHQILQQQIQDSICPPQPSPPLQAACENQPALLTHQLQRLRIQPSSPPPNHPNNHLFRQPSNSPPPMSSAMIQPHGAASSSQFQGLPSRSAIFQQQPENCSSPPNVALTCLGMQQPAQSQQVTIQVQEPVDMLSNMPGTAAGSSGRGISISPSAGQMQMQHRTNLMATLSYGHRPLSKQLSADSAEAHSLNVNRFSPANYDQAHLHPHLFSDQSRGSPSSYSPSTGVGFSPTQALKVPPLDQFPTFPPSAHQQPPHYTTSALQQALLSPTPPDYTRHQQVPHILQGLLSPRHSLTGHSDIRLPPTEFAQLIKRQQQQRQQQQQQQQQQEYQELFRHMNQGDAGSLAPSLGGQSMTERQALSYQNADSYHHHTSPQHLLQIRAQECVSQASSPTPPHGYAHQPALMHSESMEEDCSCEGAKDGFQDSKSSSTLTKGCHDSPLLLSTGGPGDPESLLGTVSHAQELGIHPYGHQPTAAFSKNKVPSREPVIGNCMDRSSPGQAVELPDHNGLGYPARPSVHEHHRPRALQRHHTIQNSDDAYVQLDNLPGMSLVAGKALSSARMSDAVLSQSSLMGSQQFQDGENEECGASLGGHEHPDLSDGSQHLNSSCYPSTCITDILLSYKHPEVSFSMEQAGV
Procedure: as §1, §2

[1] = test system: TNFα release from human monocyte derived macrophages stimulated with LPS; assay: SIK macrophage cytokine assay, inhibition of TNFα release; type: cell-based; conditions: 1 ng/mL LPS, 4 hours, HTRF, read-out: TNFa IC50
Procedure: (§3) Cytokine Assays: SIK Macrophage Assay Cytokine activity is determined by measuring the effect of a test agent on the inhibitory release of the cytokine TNFα and the increasing release of the cytokine IL10 from human monocyte derived macrophages (human macrophages) stimulated with lipopolysaccharide (LPS). At the time of assay, human macrophages (CGPS group Pfizer Groton, CT) are removed from cryopreservation, thawed quickly at 37° C., diluted in thaw medium (OptiMEM—Gibco medium, 10% heat inactivated fetal bovine serum (HIFBS)), and then centrifuged at 200×g for 10 minutes. […] After ˜60 minutes in an incubator at 37° C. in a humidified environment in 5% carbon dioxide the cells are stimulated by the addition of 5 μL of LPS (10 ng/mL; Sigma) and the assay plate is returned to an incubator at 37° C. in a humidified environment in 5% carbon dioxide for 4 hours. […] The final concentration of DMSO in the assay is approximately 0.1%. After 4 hours, the assay plate is removed from the incubator and centrifuged at 1500 rpm for 10 minutes. A portion of the resulting cell supernatant is then used to determine the amount of IL-10 and TNFα in each well. Cytokine measurements are made using human IL-10 and TNFα HTRF assay kits (Perkin Elmer) following the manufacturer's assay protocol.

[2] = test system: IL10 release from human monocyte derived macrophages stimulated with LPS; assay: SIK macrophage cytokine assay, increase of IL10 release; type: cell-based; conditions: 1 ng/mL LPS, 4 hours, HTRF
Procedure: as §3

Chain of SIK1 (P57059 whole entry, species assumed): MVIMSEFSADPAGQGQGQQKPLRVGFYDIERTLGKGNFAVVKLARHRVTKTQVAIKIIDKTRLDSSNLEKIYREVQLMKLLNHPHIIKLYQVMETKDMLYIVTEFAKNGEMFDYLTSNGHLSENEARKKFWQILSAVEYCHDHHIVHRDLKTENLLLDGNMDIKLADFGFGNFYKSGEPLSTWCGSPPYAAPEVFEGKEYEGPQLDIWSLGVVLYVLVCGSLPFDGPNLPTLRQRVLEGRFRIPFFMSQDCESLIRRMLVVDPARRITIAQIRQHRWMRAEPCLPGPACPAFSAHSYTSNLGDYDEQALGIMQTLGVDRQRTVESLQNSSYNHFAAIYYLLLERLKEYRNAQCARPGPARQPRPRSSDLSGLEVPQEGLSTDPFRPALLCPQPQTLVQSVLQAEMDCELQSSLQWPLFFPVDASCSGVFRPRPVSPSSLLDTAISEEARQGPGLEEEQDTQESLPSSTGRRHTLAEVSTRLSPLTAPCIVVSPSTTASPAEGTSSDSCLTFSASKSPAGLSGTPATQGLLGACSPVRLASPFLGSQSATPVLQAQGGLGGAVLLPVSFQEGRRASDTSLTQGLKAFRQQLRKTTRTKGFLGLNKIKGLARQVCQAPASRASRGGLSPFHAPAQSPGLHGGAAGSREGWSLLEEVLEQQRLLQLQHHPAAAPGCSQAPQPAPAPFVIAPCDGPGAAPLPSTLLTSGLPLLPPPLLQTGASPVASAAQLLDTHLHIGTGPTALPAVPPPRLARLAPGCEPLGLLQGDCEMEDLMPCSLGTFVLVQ

Molecule	IC50 (SIK1)	IC50 (SIK2)	IC50 (SIK3)	IC50 ([1]; Macrophage)	EC50 ([2]; Macrophage)	IC50 [1]	EC50 [2]
CSc1cc(-c2cnc3ccccn23)cc(OC[C@]2(N)CCSC2)c1C#N (mixture of isomers) [Example 22, (R)-2-((3-Aminotetrahydrothiophen-3-yl)methoxy)-4-(imidazo[1,2-a]pyridin-3-yl)-6-(methylthio)benzonitrile and (S)-2-((3-Aminotetrahydrothiophen-3-yl)methoxy)-4-(imidazo[1,2-a]pyridin-3-yl)-6-(methylthio)benzonitrile]	1.6 nM	1.3 nM	5.9 nM	32.4 nM	357 nM		
CSc1cc(-c2cnc3ccc(N4CCCC4)c(C#N)n23)cc(OCC2(N)CCCC2)c1C#N [Example 47, 3-(3-((1-Aminocyclopentyl)methoxy)-4-cyano-5-(methylthio)phenyl)-6-(pyrrolidin-1-yl)imidazo[1,2-a]pyridine-5-carbonitrile]	0.2 nM	0.4 nM	0.9 nM	1.4 nM	6 nM		
CSc1cc(-c2cnc3cc(Cl)cc(C#N)n23)cc(OCC2(N)CCCC2)c1C#N [Example 42, 3-(3-((1-Aminocyclopentyl)methoxy)-4-cyano-5-(methylthio)phenyl)-7-chloroimidazo[1,2-a]pyridine-5-carbonitrile]	3 nM	0.9 nM	2.2 nM	10.7 nM	85 nM		
CCc1ccc2ncc(-c3cc(OCC4(N)CCCC4)c(C#N)c(SC)c3)n2c1C#N [Example 44, 3-(3-((1-Aminocyclopentyl)methoxy)-4-cyano-5-(methylthio)phenyl)-6-ethylimidazo[1,2-a]pyridine-5-carbonitrile]	2.3 nM	1.7 nM	2.1 nM	21 nM	38 nM		
CSc1cc(-c2cnc3ccc(N)c(C#N)n23)cc(OCC2(N)CCCC2)c1C#N [Example 45, 6-Amino-3-(3-((1-aminocyclopentyl)methoxy)-4-cyano-5-(methylthio)phenyl)imidazo[1,2-a]pyridine-5-carbonitrile]	0.1 nM	0.2 nM	0.4 nM	0.6 nM	3 nM		
CC[C@@H]1CCC[C@@]1(N)COc1cc(-c2cnc3cccc(OC)n23)cc(OC)c1C#N [Example 2A, 2-(((1S,2R)-1-Amino-2-ethylcyclopentyl)methoxy)-6-methoxy-4-(5-methoxyimidazo[1,2-a]pyridin-3-yl)benzonitrile]	0.5 nM	0.6 nM	2 nM	5.2 nM	21 nM		
CSc1cc(-c2cnc3ccc(C)c(C#N)n23)cc(OCC2(N)CCCC2)c1C#N [Example 40, 3-(3-((1-Aminocyclopentyl)methoxy)-4-cyano-5-(methylthio)phenyl)-6-methylimidazo[1,2-a]pyridine-5-carbonitrile]	0.4 nM	0.6 nM	1.6 nM	6.1 nM	17 nM		
COc1cc(C#N)n2c(-c3cc(OCC4(N)CCCC4)c(C#N)c(SC)c3)cnc2c1 [Example 50, 3-(3-((1-Aminocyclopentyl)methoxy)-4-cyano-5-(methylthio)phenyl)-7-methoxyimidazo[1,2-a]pyridine-5-carbonitrile]	1.2 nM	0.5 nM	0.8 nM	4.2 nM	29 nM		
CSc1cc(-c2cnc3cccc(C#N)n23)cc(OCC2(N)CCCC2)c1C#N [Example 36, 3-(3-((1-Aminocyclopentyl)methoxy)-4-cyano-5-(methylthio)phenyl)imidazo[1,2-a]pyridine-5-carbonitrile]	1.2 nM	0.8 nM	2.1 nM	4.8 nM	35 nM		
COc1cc(C#N)n2c(-c3cc(OC)c(C#N)c(OCC4(N)CCCCC4)c3)cnc2c1 [Example 52, 3-(3-((1-Aminocyclohexyl)methoxy)-4-cyano-5-methoxyphenyl)-7-methoxyimidazo[1,2-a]pyridine-5-carbonitrile]	5.1 nM	1.1 nM	2.1 nM	12 nM	178 nM		
CSc1cc(-c2cnc3ccccn23)cc(OC[C@@]2(N)CCC[C@H](C(F)(F)F)C2)c1C#N.CSc1cc(-c2cnc3ccccn23)cc(OC[C@]2(N)CCC[C@@H](C(F)(F)F)C2)c1C#N (mixture of isomers) [Example 33B, 2-(((1R,3S)-1-Amino-3-(trifluoromethyl)cyclohexyl)methoxy)-4-(imidazo[1,2-a]pyridin-3-yl)-6-(methylthio)benzonitrile and 2-(((1S,3R)-1-amino-3-(trifluoromethyl)cyclohexyl)methoxy)-4-(imidazo[1,2-a]pyridin-3-yl)-6-(methylthio)benzonitrile]	10.9 nM	9.9 nM	23.4 nM			258 nM	338 nM
3-(3-((1-Aminocyclopentyl)methoxy)-4-cyano-5-(methylthio)phenyl)pyrazolo[1,5-a]pyridine-4-carbonitrile [Example 37]	0.3 nM	0.4 nM	0.9 nM			3.9 nM	27 nM
COc1cc(-c2cnc3ccc(N(C)C)c(C#N)n23)cc(OCC2(N)CCCC2)c1C#N [Example 48, 3-(3-((1-Aminocyclopentyl)methoxy)-4-cyano-5-methoxyphenyl)-6-(dimethylamino)imidazo[1,2-a]pyridine-5-carbonitrile]	0.4 nM	0.7 nM	1.7 nM	0.8 nM	4 nM		
COc1cc(-c2cnc3cccc(OC)n23)cc(OCC2(N)CCCN(CC(F)(F)F)C2)c1C#N (stereo not drawn) [Example 21A]	1 nM	1.1 nM	4.4 nM			19.6 nM	50 nM
CSc1cc(-c2cnc3ccc(N4CCC4)c(C#N)n23)cc(OCC2(N)CCCC2)c1C#N [Example 46, 3-(3-((1-Aminocyclopentyl)methoxy)-4-cyano-5-(methylthio)phenyl)-6-(azetidin-1-yl)imidazo[1,2-a]pyridine-5-carbonitrile]	0.8 nM	1.5 nM	2.8 nM	6.9 nM	28 nM		
CSc1cc(-c2cnc3cc(C)cc(C#N)n23)cc(OCC2(N)CCCC2)c1C#N [Example 41, 3-(3-((1-Aminocyclopentyl)methoxy)-4-cyano-5-(methylthio)phenyl)-7-methylimidazo[1,2-a]pyridine-5-carbonitrile]	1.9 nM	0.8 nM	0.7 nM	5.3 nM	54 nM		
COc1cc(C#N)n2c(-c3cc(OCC4(N)CCCCC4)c(C#N)c(SC)c3)cnc2c1 [Example 51, 3-(3-((1-Aminocyclohexyl)methoxy)-4-cyano-5-(methylthio)phenyl)-7-methoxyimidazo[1,2-a]pyridine-5-carbonitrile]	1.5 nM	0.5 nM	1.6 nM	5.7 nM	26 nM		
CCC1CCCC1(N)COc1cc(-c2cnc3cccc(OC)n23)cc(SC)c1C#N (stereo not drawn) [Example 8, 2-((1-Amino-2-ethylcyclopentyl)methoxy)-4-(5-methoxyimidazo[1,2-a]pyridin-3-yl)-6-(methylthio)benzonitrile]	1.1 nM	1 nM	3.3 nM	11.1 nM	23 nM		

From patent US20240124450A1, “Novel SIK Inhibitors” (Pfizer Inc., priority 2022, published 2024)
